Measurements as given in US7781423B2, “Compounds to promote regeneration of bone marrow” (priority 2007, dated 2010).

Experiments:
healthy mice = assay: Toxicity in healthy mice; type: in vivo; details: 1,000-1,500 μmole doses
[1] = system: granulocyte-macrophage colony-forming units (CFU-GM); assay: Recovery of bone marrow function after sublethal whole body irradiation (nucleated BM cells, CFU-GM assay); type: in vivo, C57B1 mice; details: for CFU-GM per femur / CFU-GM/10^5 nucleated BM cells: CCompound1 4.5 mg per kg i.p. daily, day -3 to day +3; for CFU-GM/10^5 nucleated BM cells: colonies counted on day 7 of culture
Description: This experiment served to determine if CCompound1 was able to promote regeneration of partially ablated bone marrow from endogenous stem cells i.e. promote restoration of the capacity of bone marrow to produce blood cells. The CFU-GM assay was performed because the number of CFU-GM per femur is a good indicator of bone marrow regeneration. Ballestrero, A., Ferrando, F., Garuti, A., Basta, P., Gonella, R., Stura, P., Mela, G. S., Sessarego, M, Gobbi, M. and Patrone, F., “Comparative effects of three cytokine regimens after high-dose cyclophosphamide: Granulocyte colony-stimulating factor, granulocyte-macrophage colony-stimulating factor (GM-CSF), and sequential interleukin-3 and GM-CSF,” J. Clin. Oncol., 17, 1296-1303 (1999).
C57B1 female (10-14 weeks old) mice received sublethal (250 cGy) whole body irradiation from a ^137Cesium source (day 0). Starting three days before irradiation, animals received daily 4.5 mg per kg of CCompound1 via intraperitoneal injection; this treatment also was provided on day 0 and once daily for three days subsequent to irradiation. In another group, mice were injected only with physiological saline. The subsequent procedure has been reported in Vas, V., Fajka-Boja, R., Ion, G. A., Dudics, V., Monostori, E. and Uher, F., “Biphasic effect of recombinant Galectin-1 on the growth and death of early hematopoietic cells,” Stem Cells, 23, 279-287 (2005). Briefly, bone marrow was flushed from the femurs with Iscove's modified Dulbecco's medium (Gibco BRL, Gaithersburg, Md., USA), and after standard erythrocyte lysis, nucleated cells were counted using a hemocytometer. […] To measure the formation of the granulocyte-macrophage colony-forming units (CFU-GM), a semisolid colony-forming cell assay was used. Nucleated bone marrow cells (isolated on the days as indicated above) were plated in 35-mm Petri dishes (Costar, Cambridge, Mass., USA) in Iscove's modified Dulbecco's medium supplemented with 1% methylcellulose, 30% horse serum (Gibco), 10% WEHI-3B conditioned medium as a source of growth factors, 4 mM L-glutamine, 0.25 mM a-thioglycerol (Gibco), 1% deionized bovine serum albumine (Sigma), and antibiotics (Gibco). Cells were cultured at 37° C. in 5% CO2/95% air atmosphere and colonies were counted on day 7 in the same dish. Colonies containing at least 50 cells were counted which is a generally accepted value in the literature. Each value represents the mean±st. dev. of 9 samples (3 parallel dishes from each animal).

[2] = day 3 after 250 cGy irradiation
[3] = day 6 after 250 cGy irradiation
[4] = day 10 after 250 cGy irradiation

With Cc1c(OCC(O)C[N+](C)(C)C)cc2c(=O)c3ccccc3sc2c1C.[Cl-] (centres unmarked) [CCcompound1, [3-(3,4-Dimethyl-9-oxo-9H-thioxanthen-2-yloxy)-2-hydroxypropyl]trimethyl-ammonium chloride] as the compound, how does the “tissue alterations at high doses” value (healthy mice) read?
Its value is “mild parenchymal degeneration in the heart, focal hypostasis and chronic bronchopneumonia”.

What about the CFU-GM per femur [1, 2] of the same compound?
The CFU-GM per femur was 508.

What about the “CFU-GM/10^5 nucleated BM cells” value [1, 2] of the same compound?
Its value is 87.8 ± 9.0.

And the CFU-GM per femur [1, 3]?
The CFU-GM per femur was 713.

What about the “CFU-GM/10^5 nucleated BM cells” value [1, 3] of the same compound?
The value was 92.3 ± 7.2.

And the CFU-GM per femur [1, 4]?
Its CFU-GM per femur is 1,081.

And the “CFU-GM/10^5 nucleated BM cells” value [1, 4]?
The value was 94.4 ± 8.1.

And the “effect on number of nucleated bone marrow cells and CFU-GM” value ([1]; from the third day on after sublethal irradiation)?
Its value is “enhanced the number of nucleated bone marrow cells and CFU-GM”.
